Data from patent US20100143346A1, “Treatment of Macular Degeneration” (priority 2006, published 2010).

Key:
gut vessel plexus = assay: Zebrafish angiogenesis assay: scoring of the gut vessel plexus in transgenic GFP fish; format: in vivo, Zebrafish (Danio rerio); set-up: Inhibition of gut vessel formation: scale not given here; conditions: for Inhibition of gut vessel formation: transgenic GFP fish incubated 24 h.p.f. to 5 d.p.f., gut vessel plexus scored by microscopy; for concentrations showing concentration-dependent inhibition of vessels: gut vessels
Text: Zebrafish (Danio rerio) are ideal organisms for the investigation of blood vessel growth because they are transparent in the embryonic and larval stages of development so that blood vessels marked with a fluorescent marker can clearly be seen in vivo in the live animal. Zebrafish blood vessel development is well characterised and vessels can be visualised by microangiography or by expressing green fluorescent protein in blood vessels (Isogai et al. (2001) Dev Biol 230(2): 278-301; Covassin et al. (2006) Proc Natl Acad Sci USA 103(17): 6554-9). Zebrafish are also ideal vertebrate organisms in which to screen for active small molecules because the larvae can be treated with compound simply by immersion of the fish in compound solution in wells of a standard multi-well plate (12, 24 or 96-wells).
Expression of the zebrafish PR can be detected as early as 48 hours post fertilisation and an assay was therefore developed to investigate the effects of compounds on blood vessel formation in zebrafish after this time. Previous studies on inhibition of blood vessel growth have focussed on formation of intersegmental vessels (Serbedzija et al. (1999) Angiogenesis 3(4): 353-9; Parng at al. (2002) Assay Drug Dev Technol 1(1 Pt 1): 41-8) but these particular vessels are specified and begin to form prior to the time when the PR is expressed in the zebrafish embryo. Accordingly, later-developing vessels around the gut, the vascular plexus of the mid gut which branches from the subintestinal vein and supraintestinal artery, were monitored.
A similar method was developed for screening of compounds using a line of fish that express GFP under control of an enhancer that drives expression in blood vessels, spinal cord and eyes. The fish are a cross between the et19.1 enhancer:Gal4 line (Scott et al. (2007) Nat Methods 4(4): 323-6) and a UAS:GFP line made in-house in a TL zebrafish background. Transgenic zebrafish embryos or larvae expressing GFP in the blood vessel walls were treated with test compounds by immersion in aqueous medium containing the compound at the required concentration, for a period of one or more days. At the end of the incubation period the fish were immobilised on their sides and the organisation and structure of the vasculature was visualised by fluorescent microscopy, which is possible because of the transparency of zebrafish larvae. The vessels can be identified by comparison with the online Interactive Atlas of Zebrafish Vascular Anatomy (Isogai et al. (2001) Dev Biol 230(2): 278-301).
Vessels such as the dorsal aorta, posterior cardinal vein, caudal artery, caudal vein, intersegmental vessels, dorsal longitudinal anastomotic vessels and the gut vessel plexus were assessed in each fish and compared to the control group. […] A subjective score was given to the fore/mid gut vessel plexus (by assessment of the number of visible vessels and extent of spread of the plexus), ranging from “3” for a normal extensively vascularised gut, to “0” for a complete absence of any branching of vessels around the gut. The intestinal vessel plexus forms between 3 and 5 days post fertilisation (d.p.f.) and so these assays were usually scored at 5 d.p.f. The vessels could also be quantified by digital photography and quantification of fluorescence levels or number of vessels in the region of interest.
Assays using Tg 043/050 uas:GFP+/−enhancer:gal4+/−×TL (“panretinal” enhancer) fish, incubated with various compounds (see Table below) from 24 h.p.f. to 5 d.p.f. (unless otherwise stated), then scoring the extent of the gut vessel plexus by microscopy. A score of 3 represents a good, fully formed gut vessel plexus, with 20 or more branched vessels; 2 represents as slightly less well formed plexus with 10-19 vessels; 1 represents a poorly formed plexus with 1-9 vessels; 0 represents a complete absence of visible gut vessels. Each of the compounds was tested in a 24 hour MTC assay in the TL strain of wild type fish (24-48 h.p.f.). […]

[1] = tested on: TL strain of wild type fish; assay: 24 hour MTC assay in the TL strain of wild type fish; format: in vivo, Zebrafish (Danio rerio); conditions: 24-48 h.p.f.
Experimental: Assays using Tg 043/050 uas:GFP+/−enhancer:gal4+/−×TL (“panretinal” enhancer) fish, incubated with various compounds (see Table below) from 24 h.p.f. to 5 d.p.f. (unless otherwise stated), then scoring the extent of the gut vessel plexus by microscopy. A score of 3 represents a good, fully formed gut vessel plexus, with 20 or more branched vessels; 2 represents as slightly less well formed plexus with 10-19 vessels; 1 represents a poorly formed plexus with 1-9 vessels; 0 represents a complete absence of visible gut vessels. Each of the compounds was tested in a 24 hour MTC assay in the TL strain of wild type fish (24-48 h.p.f.). The MTC from this assay was used as the highest concentration for assays in the transgenic fish, with half-log intervals.

[2] = cited from earlier work

COC[C@]1(OC)CC[C@H]2[C@@H]3CCC4=CC(=O)CCC4=C3[C@@H](c3ccc(/C=N/O)cc3)C[C@@]21C [Asoprisnil]
Inhibition of gut vessel formation (gut vessel plexus): +
MTC [1]: 10 µM

CC1=CC(C)(C)Nc2ccc(-c3cccc(C#N)c3)cc21 [LG120753]
concentrations showing concentration-dependent inhibition of vessels (gut vessel plexus): 0.3 to 3 µM
Inhibition of gut vessel formation (gut vessel plexus): +
MTC [1]: 3 µM

CC1=CC(C)(C)Nc2ccc(-c3csc(C#N)c3)cc21 [LG121046]
Inhibition of gut vessel formation (gut vessel plexus): ++
MTC [1]: 3 to 10 µM

CC#C[C@]1(O)CC[C@H]2[C@@H]3CCC4=CC(=O)CCC4=C3[C@@H](c3ccc(N(C)C)cc3)C[C@@]21C [RU486, 17beta-hydroxy-11-beta-(4-dimethylaminophenyl)-17alpha-(prop-1-ynyl)-estra-4,9-dien-3-one]
inhibition of gut vessel formation (in words) (gut vessel plexus): dose-dependent
rescue of vessel inhibition by progesterone (gut vessel plexus; 10 μM of each (RU486 and progesterone)): rescued by progesterone
Inhibition of gut vessel formation (gut vessel plexus): +++
MTC [1]: 10 to 30 µM
plasma half life ([2]; after oral dosing): 20 to 30 h
time to peak plasma levels ([2]; after oral dosing): 1 to 2 h
oral bioavailability ([2]; oral): 40-70%

CC#CC1(O)CCC2C3CCC4=CC(=O)CCC4=C3C(c3ccc(NC)cc3)CC21C (centres unmarked) [RU42633]
concentration of best inhibition of gut vessels (gut vessel plexus; concentration response curves, 1-5 dpf): 30 µM
Inhibition of gut vessel formation (gut vessel plexus): +++
MTC [1]: 30 µM

CN(C)c1ccc(C2CC3(C)C(CCC3(O)C#CCO)C3CCC4=CC(=O)CCC4=C23)cc1 (centres unmarked) [RU42698]
concentrations showing concentration-dependent inhibition of vessels (gut vessel plexus): 30 to 100 µM
Inhibition of gut vessel formation (gut vessel plexus): ++
MTC [1]: 100 µM

CC#CC1(O)CCC2C3CCC4=CC(=O)CCC4=C3C(c3ccc(N)cc3)CC21C (centres unmarked) [RU42848]
Inhibition of gut vessel formation (gut vessel plexus): +
MTC [1]: 100 µM

Cc1cc(C)c(/C=C2\C(=O)Nc3ccccc32)[nH]1 [SU5416]
inhibition of gut vessel formation (in words) (gut vessel plexus): vessel formation was inhibited

CC1(C)OC(=O)Nc2ccc(-c3cc(F)cc(Cl)c3)cc21 [Wyeth 4g]
Inhibition of gut vessel formation (gut vessel plexus): ++
MTC [1]: 3 µM

CC1(C)OC(=O)Nc2ccc(-c3cc(F)cc(C#N)c3)cc21 [Wyeth 4h]
concentration of maximal inhibition of gut vessels (gut vessel plexus; data not shown): 30 µM
Inhibition of gut vessel formation (gut vessel plexus): ++
MTC [1]: 30 µM

CC1(C)OC(=O)Nc2ccc(-c3ccc(F)c(Cl)c3)cc21 [Wyeth 4j]
Inhibition of gut vessel formation (gut vessel plexus): +
MTC [1]: 1 to 3 µM

CC1(C)OC(=O)Nc2ccc(-c3ccc(F)c(C#N)c3)cc21 [Wyeth 6]
Inhibition of gut vessel formation (gut vessel plexus): +
MTC [1]: 100 µM
